Assays:
[1] = target: T1, Dihydrofolate reductase (Pneumocystis carinii, UniProt P16184)
T1 sequence (P16184 whole entry): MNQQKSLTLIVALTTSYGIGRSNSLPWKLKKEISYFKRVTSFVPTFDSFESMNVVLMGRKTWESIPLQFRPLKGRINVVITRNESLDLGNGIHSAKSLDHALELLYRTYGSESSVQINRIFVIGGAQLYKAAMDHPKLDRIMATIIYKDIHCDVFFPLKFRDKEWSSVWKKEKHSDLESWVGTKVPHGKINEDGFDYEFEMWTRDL
Description: Inhibition of Dihydrofolate reductase of Pneumocystis carinii

[2] = target: T2, Dihydrofolate reductase (Rattus norvegicus, UniProt Q920D2)
T2 sequence (Q920D2 whole entry): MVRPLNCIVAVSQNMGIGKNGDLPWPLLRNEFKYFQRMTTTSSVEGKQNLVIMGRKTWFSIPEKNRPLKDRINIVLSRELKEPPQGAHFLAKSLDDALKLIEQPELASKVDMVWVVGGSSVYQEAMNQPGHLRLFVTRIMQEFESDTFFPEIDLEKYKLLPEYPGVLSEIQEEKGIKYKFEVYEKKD
Description: Inhibition of Dihydrofolate reductase (DHFR) of in rat liver

[3] = target: T3, Bifunctional dihydrofolate reductase-thymidylate synthase (Toxoplasma gondii, UniProt Q07422)
T3 sequence (Q07422 whole entry): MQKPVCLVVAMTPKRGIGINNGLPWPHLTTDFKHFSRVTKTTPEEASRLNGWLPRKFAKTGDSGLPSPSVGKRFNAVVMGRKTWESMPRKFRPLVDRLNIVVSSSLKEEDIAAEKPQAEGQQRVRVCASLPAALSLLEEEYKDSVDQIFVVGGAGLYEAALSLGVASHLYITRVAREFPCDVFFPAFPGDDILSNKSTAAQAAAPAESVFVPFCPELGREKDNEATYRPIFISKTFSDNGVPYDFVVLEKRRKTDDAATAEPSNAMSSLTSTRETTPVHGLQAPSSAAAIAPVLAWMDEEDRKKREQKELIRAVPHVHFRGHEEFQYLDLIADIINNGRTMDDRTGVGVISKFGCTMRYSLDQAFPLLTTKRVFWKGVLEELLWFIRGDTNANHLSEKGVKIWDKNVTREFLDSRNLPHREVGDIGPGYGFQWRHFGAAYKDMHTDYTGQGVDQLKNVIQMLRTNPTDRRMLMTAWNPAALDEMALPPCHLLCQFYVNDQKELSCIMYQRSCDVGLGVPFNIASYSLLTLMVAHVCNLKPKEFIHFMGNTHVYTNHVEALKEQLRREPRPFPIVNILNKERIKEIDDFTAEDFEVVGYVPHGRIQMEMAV
Description: Inhibition of Dihydrofolate reductase of Toxoplasma gondii

COc1cc(CNc2ccc3nc(N)nc(N)c3c2Cl)cc(OC)c1OC
IC50 [1]: 33 nM
IC50 [2]: 6 nM
IC50 [3]: 7 nM

COc1ccc(OC)c(CNc2ccc3nc(N)nc(N)c3c2Cl)c1
IC50 [1]: 53 nM
IC50 [2]: 28 nM
IC50 [3]: 17 nM

COc1cc(CN(C)c2ccc3nc(N)nc(N)c3c2Cl)cc(OC)c1OC
IC50 [1]: 170 nM
IC50 [2]: 38 nM
IC50 [3]: 16 nM

COc1ccc(OC)c(CCCNc2ccc3nc(N)nc(N)c3c2Cl)c1
IC50 [1]: 26000 nM
IC50 [2]: 1900 nM
IC50 [3]: 1000 nM

COc1cc(CCNc2ccc3nc(N)nc(N)c3c2Cl)cc(OC)c1OC
IC50 [1]: 43000 nM
IC50 [2]: 5400 nM
IC50 [3]: 2600 nM

COc1cc(CCCNc2ccc3nc(N)nc(N)c3c2Cl)cc(OC)c1OC
IC50 [1]: 95000 nM
IC50 [3]: 14000 nM

COc1ccc(OC)c(CCNc2ccc3nc(N)nc(N)c3c2Cl)c1
IC50 [1]: 12000 nM
IC50 [3]: 990 nM

COc1cc(N(C)Cc2ccc3nc(N)nc(N)c3c2Cl)cc(OC)c1OC
IC50 [3]: 6.4 nM

COc1ccc(OC)c(NCc2ccc3nc(N)nc(N)c3c2Cl)c1
IC50 [1]: 51 nM
IC50 [2]: 44 nM
IC50 [3]: 30 nM

COc1cc(NCc2ccc3nc(N)nc(N)c3c2Cl)cc(OC)c1OC
IC50 [1]: 33 nM
IC50 [2]: 5.9 nM
IC50 [3]: 5.2 nM
